Calls of active or inactive are those of the source. The calls are words filed in the database; no cut-off is given here.
Tests used:
HeLa [1] = assay: cells; details: Homo sapiens, 48 h
A549 [2] = assay: cells; details: Homo sapiens, A549, 48 h
cells = details: Homo sapiens, A2780AD, 48 h
HeLa [3] = assay: cells; details: Homo sapiens, 48 h; remark: listed apart in the source
A2780 [4] = assay: cells; details: Homo sapiens, A2780, 48 h
Tubulin [5] = biological target: Tubulin (Bos taurus, UniProt Q6B856+Q862L2+Q862F3); assay: Displacement of fluorescent probe (R)-(+)-ethyl 5-amino2-methyl-1,2-dihydro-3-phenylpyrido[3,4-b]pyrazin-7-ylcarbamate from calf brain tubulin colchicine binding site assessed as dissociation constant at 0.05 to 70 uM incubated for 30 mins by fluorescence based assay
Tubulin (Homo sapiens) [6] = biological target: T1, Tubulin (Homo sapiens) (UniProt P68371+Q9H4B7+P0DPH7+P68366+Q13509+Q71U36+P04350+Q3ZCM7+P07437+P68363+Q9BQE3+Q6PEY2+Q13885+Q9BVA1+Q9BUF5)
Tubulin [7] = assay: Displacement of fluorescent probe (R)-(+)-ethyl 5-amino2-methyl-1,2-dihydro-3-phenylpyrido[3,4-b]pyrazin-7-ylcarbamate from tubulin colchicine binding site (unknown origin) assessed as dissociation constant; format: protein-complex assay, Homo sapiens
A2780 [8] = assay: Antiproliferative activity against human A2780 cells assessed as inhibition of cell growth; format: functional, cell-based
[9] = Antiproliferative activity against human A2780AD cells overexpressing P-gp assessed as inhibition of cell growth; format: functional, cell-based
NCI-H460 [10] = assay: Antitumor activity against human NCI-H460 cells xenografted in athymic nu/nu mouse assessed as median tumor volume at 1.7 mg/kg, iv measured on day 7 by digital caliper based analysis; format: functional; details: time 7 day
Tubulin (Homo sapiens) [11] = biological target: T1, Tubulin (Homo sapiens); assay: Disruption of microtubule network in human A549 cells assessed as disorganization of tubulin cytoskeleton during interphase incubated for 24 hrs by immunofluorescence staining based epifluorescence microscopic analysis; format: cell-based
[12] = Toxicity in athymic nu/nu mouse xenografted with human NCI-H460 cells assessed as reduction in body weight at 2.5 mg/kg, iv measured on day 7; format: organism-based; parameters: scale not given: the % may be the effect or the level left; details: in vivo, 168 h, time 7 day
NCI-H460 [13] = assay: Antitumor activity against human NCI-H460 cells xenografted in athymic nu/nu mouse assessed as reduction in tumor size at 0.75 mg/kg, iv administered once a week for 2 weeks by digital caliper based analysis; format: functional, organism-based
NCI-H460 [14] = assay: Antitumor activity against human NCI-H460 cells xenografted in athymic nu/nu mouse assessed as median tumor volume at 1.1 mg/kg, iv measured on day 7 by digital caliper based analysis; format: functional; details: time 7 day
NCI-H460 [15] = assay: Antitumor activity against human NCI-H460 cells xenografted in athymic nu/nu mouse assessed as mean survival time at 0.75 mg/kg, iv administered once a week for 2 weeks; format: functional
[16] = Toxicity in athymic nu/nu mouse xenografted with human NCI-H460 cells assessed as clinical signs of systemic toxicity at 2.5 mg/kg, iv administered once a week for 2 weeks; format: organism-based; details: in vivo, 336 h
NCI-H460 [17] = assay: Antitumor activity against human NCI-H460 cells xenografted in athymic nu/nu mouse assessed as mean survival time at 1.7 mg/kg, iv administered once a week for 2 weeks; format: functional
NCI-H460 [18] = assay: Antitumor activity against human NCI-H460 cells xenografted in athymic nu/nu mouse assessed as median tumor volume at 0.75 mg/kg, iv measured on day 7 by digital caliper based analysis; format: functional; details: time 7 day
NCI-H460 [19] = assay: Antitumor activity against human NCI-H460 cells xenografted in athymic nu/nu mouse assessed as increase in survival time at 1.1 to 2.5 mg/kg, iv administered once a week for 2 weeks; format: functional, organism-based; details: dose 1.1-2.5 mg/kg
NCI-H460 [20] = assay: Antitumor activity against human NCI-H460 cells xenografted in athymic nu/nu mouse assessed as increase in survival time at 0.75 mg/kg, iv administered once a week for 2 weeks; format: functional, organism-based
NCI-H460 [21] = assay: Antitumor activity against human NCI-H460 cells xenografted in athymic nu/nu mouse assessed as mean survival time at 1.1 mg/kg, iv administered once a week for 2 weeks; format: functional
[22] = Toxicity in athymic nu/nu mouse xenografted with human NCI-H460 cells assessed as reduction in body weight at 2.5 mg/kg, iv measured on day 5; format: organism-based; parameters: scale not given: the % may be the effect or the level left; details: in vivo, 120 h, time 5 day
Tubulin (Homo sapiens) [23] = biological target: T1, Tubulin (Homo sapiens); assay: Disruption of microtubule network in human A549 cells assessed as reduction in number and length of microtubules incubated for 24 hrs by immunofluorescence staining based epifluorescence microscopic analysis; format: cell-based
[24] = Toxicity in athymic nu/nu mouse xenografted with human NCI-H460 cells assessed as reduction in body weight at 2.5 mg/kg, iv measured on day 2; format: organism-based; parameters: scale not given: the % may be the effect or the level left; details: in vivo, 48 h, time 2 day
Tubulin (Homo sapiens) [25] = biological target: T1, Tubulin (Homo sapiens); assay: Disruption of microtubule network in human A549 cells assessed as appearance of aberrant chromosome distribution incubated for 24 hrs by immunofluorescence staining based epifluorescence microscopic analysis; format: cell-based
NCI-H460 [26] = assay: Antitumor activity against human NCI-H460 cells xenografted in athymic nu/nu mouse assessed as median tumor volume at 2.5 mg/kg, iv measured on day 7 by digital caliper based analysis; format: functional; details: time 7 day
Tubulin (Bos taurus) [27] = biological target: T2, Tubulin (Bos taurus) (UniProt Q6B856+Q862L2+Q862F3); assay: Displacement of 2-methoxy-5-(2,3,4-trimethoxyphenyl)-2,4,6-cycloheptatriene-1-one from calf brain tubulin colchicine site
Tubulin (Homo sapiens) [28] = biological target: T1, Tubulin (Homo sapiens); assay: Disruption of microtubule network in human A549 cells assessed as reduction in mitotic spindle formation incubated for 24 hrs by immunofluorescence staining based epifluorescence microscopic analysis; format: cell-based
[29] = Inhibition of human recombinant alpha1beta3 tubulin expressed in Sf9 insect cells at 5 to 27.5 uM incubated for 70 mins by […]; details: dose 5-27.5 µM
Tubulin (Bos taurus) [30] = biological target: T2, Tubulin (Bos taurus); assay: Inhibition of calf brain tubulin assembly measured upto 100 mins; details: dose 0.625-5 µM
Tubulin (Homo sapiens) [31] = biological target: T1, Tubulin (Homo sapiens); assay: Disruption of microtubule network in human A549 cells assessed as induction of cellular landscape at 1 nM incubated for 24 hrs by immunofluorescence staining based epifluorescence microscopic analysis; format: cell-based
NCI-H460 [32] = assay: Antitumor activity against human NCI-H460 cells xenografted in athymic nu/nu mouse assessed as reduction in tumor size at 1.1 to 2.5 mg/kg, iv administered once a week for 2 weeks by digital caliper based analysis; format: functional, organism-based; details: dose 1.1-2.5 mg/kg
NCI-H460 [33] = assay: Antitumor activity against human NCI-H460 cells xenografted in iv dosed athymic nu/nu mouse assessed as reduction in tumor volume administered once a week for 2 weeks and measured 2 to 3 times per week by digital caliper based analysis; format: functional, organism-based; details: dose 0.25-2.5 mg/kg
NCI-H460 [34] = assay: Antitumor activity against human NCI-H460 cells xenografted in athymic nu/nu mouse assessed as mean survival time at 2.5 mg/kg, iv administered once a week for 2 weeks; format: functional
NCI-H460 [35] = assay: Antitumor activity against human NCI-H460 cells xenografted in athymic nu/nu mouse assessed as increase in apoptosis by measuring number of apoptotic nuclei in tumor at 2.5 mg/kg, iv administered once a week for 2 weeks and measured 24 hrs post last dose by Hoechst 33258 staining based fluorescence microscopic analysis (reference value: 1 +/- 0.1); format: functional; details: time 15 day
Tubulin (Homo sapiens) [36] = biological target: T1, Tubulin (Homo sapiens); assay: Disruption of microtubule network in human A549 cells assessed as appearance of cellular phenotype with hypercondensed chromatin incubated for 24 hrs by immunofluorescence staining based epifluorescence microscopic analysis; format: cell-based
A549 [37] = assay: cells; details: Homo sapiens
Description: Antiproliferative activity against human A549 cells assessed as inhibition of cell growth

HeLa [38] = assay: cells; details: Homo sapiens
Description: Antiproliferative activity against human HeLa cells expressing tubulin betaIII assessed as inhibition of cell growth

HeLa [39] = assay: cells; details: Homo sapiens; remark: listed apart in the source
Description: Antiproliferative activity against human HeLa cells assessed as inhibition of cell growth

Tubulin (Bos taurus) [40] = biological target: T2, Tubulin (Bos taurus); assay: Binding affinity to calf brain tubulin colchicine binding site assessed as Koff at 3 uM incubated for 30 mins by fluorescence based photon-counting instrument

`COc1cc([C@@H]2c3cc4c(cc3[C@H](O)[C@H]3COC(=O)[C@H]23)OCO4)cc(OC)c1OC` [PODOFILOX] showed an IC50 (HeLa [1]) of 0.0155 µM, an IC50 (A549 [2]) of 0.016 µM and an IC50 (cells) of 0.02 µM. It also gave an IC50 (HeLa [3]) of 0.018 µM.

With `CCC[C@@H](NC(=O)[C@]1(C)CSC(/C(C)=N/O)=N1)c1cc(OC)cc(=O)o1` the IC50 (A2780 [4]) was 0.022 µM, the IC50 (HeLa [1]) was 0.019 µM and the IC50 (A549 [2]) was 0.023 µM. For the same compound, the IC50 (cells) was 0.054 µM, the Kd (Tubulin [5]) was 0.96 µM and the IC50 (HeLa [3]) was 0.028 µM.

For `COc1cc2cc(c1Cl)N(C)C(=O)C[C@H](OC(=O)[C@H](C)N(C)C(C)=O)[C@]1(C)O[C@H]1[C@H](C)[C@@H]1C[C@@](O)(NC(=O)O1)[C@H](OC)/C=C/C=C(\C)C2` [MAYTANSINE], the IC50 (A2780 [4]) was 0.00074 µM, the IC50 (HeLa [1]) was 0.00033 µM and the IC50 (A549 [2]) was 0.00059 µM. The IC50 (cells) was 0.019 µM and the IC50 (HeLa [3]) was 0.0011 µM.

For `COc1ccc(/C=C\c2cc(OC)c(OC)c(OC)c2)cc1O`, the Ka (Tubulin (Homo sapiens) [6]) was 3 10^8/M.

`CC[C@]1(O)C[C@@H]2CN(CCc3c([nH]c4ccccc34)[C@@](C(=O)OC)(c3cc4c(cc3OC)N(C)[C@H]3[C@@](O)(C(=O)OC)[C@H](OC(C)=O)[C@]5(CC)C=CCN6CC[C@]43[C@@H]65)C2)C1` [VINBLASTINE] showed an IC50 (A2780 [4]) of 0.0015 µM, an IC50 (HeLa [1]) of 0.00054 µM and an IC50 (A549 [2]) of 0.0015 µM. The IC50 (cells) was 0.07 µM and the IC50 (HeLa [3]) was 0.0044 µM.

In the case of `COCc1cc2cccc(NC(C)=C3C(=O)CC(c4ccccc4)CC3=O)c2o1` (stereo not given), the Kd (Tubulin [7]) is reported as 0.003 µM, the IC50 (A2780 [8]) is reported as 0.023 µM and the IC50 [9] is reported as 0.039 µM.

For `CCC[C@@H](NC(=O)[C@]1(C)CSC(/C(C)=N/O)=N1)c1cc(OCC2CC2)cc(=O)o1`, the Activity (NCI-H460 [10]) was 580 mm3, the Activity (Tubulin (Homo sapiens) [11]) was “Active” and the Activity [12] was -2.9%. For the same compound, the Activity (NCI-H460 [13]) was “inactive”, the Activity (NCI-H460 [14]) was 947.3 mm3 and the MST (NCI-H460 [15]) was 10.5 days. For the same compound, the Activity [16] was “Non-Toxic”, the MST (NCI-H460 [17]) was 20 days and the Activity (NCI-H460 [18]) was 1395 mm3. For the same compound, the Activity (NCI-H460 [19]) was “Active”, the Activity (NCI-H460 [20]) was “inactive” and the IC50 (A2780 [4]) was 0.0014 µM. The MST (NCI-H460 [21]) was 16 days, the Activity [22] was -4.5% and the IC50 (HeLa [1]) was 0.0016 µM. The Activity (Tubulin (Homo sapiens) [23]) was “Active”, the Activity [24] was 11.2% and the Activity (Tubulin (Homo sapiens) [25]) was “Active”. The Activity (NCI-H460 [26]) was 260.4 mm3, the Activity (Tubulin (Bos taurus) [27]) was 100% and the Activity (Tubulin (Homo sapiens) [28]) was “Active”. The inhibition [29] was “Active”, the inhibition (Tubulin (Bos taurus) [30]) was “Dose-Dependent Effect” and the IC50 (A549 [2]) was 0.0015 µM. For the same compound, the IC50 (cells) was 0.0032 µM, the Activity (Tubulin (Homo sapiens) [31]) was “Active” and the Activity (NCI-H460 [32]) was “Active”. For the same compound, the Activity (NCI-H460 [33]) was “Dose-Dependent Effect”, the MST (NCI-H460 [34]) was 21 days and the Kd (Tubulin [5]) was 0.02 µM. For the same compound, the Activity (NCI-H460 [35]) was 10, the Activity (Tubulin (Homo sapiens) [36]) was “Active” and the IC50 (HeLa [3]) was 0.0013 µM.

Work on `COc1cc2c(c(OC)c1OC)-c1ccc(OC)c(=O)cc1[C@@H](NC(C)=O)CC2` [COLCHICINE] yielded an IC50 (A549 [37]) of 0.049 µM, an IC50 (HeLa [38]) of 0.019 µM and an IC50 [9] of 0.537 µM. For the same compound, the IC50 (HeLa [39]) was 0.011 µM.

`COc1ccc(-c2ccc(OC)c(=O)cc2)c(OC)c1OC` showed a K (Tubulin (Bos taurus) [40]) of 6 s⁻¹.

Compound `CC(=O)O[C@H]1C(=O)[C@@]2(C)[C@H]([C@H](OC(=O)c3ccccc3)[C@]3(O)C[C@H](OC(=O)[C@H](O)[C@@H](NC(=O)c4ccccc4)c4ccccc4)C(C)=C1C3(C)C)[C@]1(OC(C)=O)CO[C@@H]1C[C@@H]2O` [PACLITAXEL] has an IC50 (HeLa [1]) of 0.0011 µM, an IC50 (cells) of 0.392 µM and an IC50 (HeLa [3]) of 0.02 µM.
